The results in this text go back to patent publication US20240343706A1, “PIPERIDINE-2,6-DIONE DERIVATIVES WHICH BIND TO CEREBLON, AND METHODS OF USE THEREOF” (Captor Therapeutics S.A., priority 2019, published 2024).

For experiment [1], the target named is T1, IKZF1-compound-CRBN/DDB1 ternary complex (Homo sapiens, UniProt Q96SW2).
T1 construct: Strep-tagged Ikaros (IKZF1 ZF2)
The experiment in a line: IKZF1-compound-CRBN/DDB1 ternary complex formation, AlphaLISA homogenous assay. The format is biochemical. The conditions noted are these: AlphaLISA, 0.1, 1 and 10 μM, normalized to Lenalidomide response. As to the method: Strep-tagged Ikaros (IKZF1 ZF2) and His-CRBN/DDB1 complex preparations were centrifugated to remove large aggregates (18000 rcf, 4° C., 5 min). Supernatant was collected and protein concentration was determined spectrophotometrically. The AlphaLISA bead-Protein mixtures were prepared: CRBN-acceptor bead (40 μg/ml Anti-6×His beads, 200 nM His-CRBN/DDB1 in PBS pH 7.4 supplemented with 0.1% Tween-20) Ikaros-donor bead mix (40 μg/ml Strep-Tactin beads, 800 nM IKZF1 in PBS pH 7.4 supplemented with 0.1% Tween-20 and 2 mM DTT). Bead mixes were incubated in dark for 30 minutes at room temperature. Tested compounds were dispensed into small volume AlphaPlate (Perkin Elmer) using Echo 555 liquid handler. CRBN-acceptor bead mix and Ikaros-donor bead mix were combined and dispensed into plate with compounds and DMSO only (10 μl of master mix per well). Final sample composition: 20 μg/ml Anti-6×His beads, 20 μg/ml Strep-Tactin beads, 100 nM His-CRBN/DDB1, 400 nM IKZF1, 2% DMSO, 0.1% Tween-20, 1 mM DTT in PBS pH 7.4, +/− compound. Plate was sealed and covered to protect against light. Sample was mixed using Vibroturbulator. […] The plate seal was removed and sample luminescence was determined using Perkin Elmer Enspire plate reader. Readouts were assigned to certain compound concentration. […] The average and standard deviation (SD) were calculated for each compound concentration point. […]
In general terms: Alpha assays give light when donor and acceptor beads are brought close together.

The target of experiment [2] is BRD4-compound-CRBN/DDB1 ternary complex (Homo sapiens, UniProt O60885+Q96SW2). Description: BRD4-compound-CRBN/DDB1 ternary complex formation, AlphaLISA homogenous assay. The format is biochemical. As to the method: Biotinylated BRD4 and His-CRBN/DDB1 complex preparations were centrifugated to remove large aggregates (18000 rcf, 4° C., 5 min). Supernatant was collected and protein concentration was determined spectrophotometrically. The AlphaLISA bead-Protein mixtures were prepared: CRBN-acceptor bead (40 μg/ml Anti-6×His beads, 200 nM His-CRBN/DDB1 in PBS pH 7.4 supplemented with 0.1% Tween-20) and BRD4-donor bead (40 μg/ml Streptavidin beads, 40 nM BRD4 in PBS pH 7.4 supplemented with 0.1% Tween-20 and 2 mM DTT). Bead mixes were incubated in dark for 30 minutes at room temperature.
CRBN-acceptor bead mix and BRD4-donor bead mix were combined and dispensed into plate with compounds and DMSO only (10 μl of master mix per well). Final sample composition: 20 μg/ml Anti-6×His beads, 20 μg/ml Stretavidin beads, 100 nM His-CRBN/DDB1, 20 nM BRD4, 2% DMSO, 0.1% Tween-20, 1 mM DTT in PBS pH 7.4, +/− compound. Plate was sealed and covered to protect against light. Sample was mixed using Vibroturbulator. Subsequently, solutions in the plate was centrifugated and incubated in the dark for 30 minutes at 25° C. The plate seal was removed and sample luminescence was determined using Perkin Elmer Enspire plate reader. Readouts were assigned to certain compound concentration. Solutions without compound were utilized to determine background response (an average value) which subsequently was subtracted from raw data collected for compound mixtures.

The target of experiment [3] is CRBN-DDB1 protein complex (Homo sapiens, UniProt Q96SW2). The experiment in a line: Fluorescence polarization (FP) assay, displacement of Cy5-labelled thalidomide. The conditions noted are these: 25 nM CRBN-DDB1, 5 nM Cy5-labelled thalidomide, read-out: CRBN binding Ki. The procedure, abridged:
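CRBN-DDB1 mixed with Cy5-thalidomide tracer and test compound, then incubated 60 min at room temperature (20-25 °C) before fluorescence polarization read-out. Ki derived from tracer displacement across a range of compound concentrations.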
For orientation: Fluorescence polarisation rises when a labelled molecule tumbles more slowly, as on binding a larger partner.

Consider `Cc1sc2c(c1C)C(c1ccc(Cl)cc1)=N[C@@H](CC(=O)NCCCCCCCCNC(=O)Cn1c(C)nc3c(C(=O)NC4CCC(=O)NC4=O)cccc31)c1nnc(C)n1-2` (stereo partly drawn) [Compound 65, 1-(2-((8-(2-((S)-4-(4-chlorophenyl)-2,3,9-trimethyl-6H-thieno[3,2-f][1,2,4]triazolo[4,3-a][1,4]diazepin-6-yl)acetamido)octyl)amino)-2-oxoethyl)-N-(2,6-dioxopiperidin-3-yl)-2-methyl-1H-benzo[d]imidazole-4-carboxamide], for which the “IKZF1-compound-CRBN/DDB1 complex formation (in words)” value in experiment [1] is “do not promote IKZF1-compound-CRBN/DDB1 complex formation”. Further, the EC50 in experiment [2] (100 nM His-CRBN/DDB1, 20 nM BRD4, N = 3, read-out: TF50 (compound concentration which mediate the half of maximal response observed for Ternary Complex)) turned out to be 38.8 nM. The “Normalized AUC to dBET1” value in experiment [2] (area under curve 1.63-2500 nM, normalized to dBET1) was found to be 1.22. The Ki in experiment [3] was less than 1000 nM.

For orientation: Ki means the equilibrium dissociation constant of an inhibitor or competing ligand from its target.
